From patent publication US20260007679A1, “METHODS OF TREATING CANCER USING 3-(4-((4-(MORPHOLINOMETHYL)BENZYL)OXY)-1-OXOISOINDOLIN-2-YL)PIPERIDINE-2,6-DIONE” (Celgene Corporation, priority 2012, published 2026)
Where “and” joins values, the source holds several entries; their conditions need not be identical. Identical values can stand only once. Like-named read-outs stand apart in the source and are kept apart here.

Assays:
[1] = test system: DoHH2 FL cells; test: 3 day 3H-thymidine incorporation assay; format: cell-based
[2] = test system: Revlimid-resistant NCI-H929 R4-10; test: Proliferation and viability by 7-AAD staining; format: cell-based; details: Homo sapiens, NCI-H929, 120 h; R4-10; 5 days; read-out: IC50, proliferation
[3] = test system: H929 DMSO-treated subclone; test: Proliferation and viability by 7-AAD staining; format: cell-based; details: Homo sapiens, NCI-H929, 120 h, 5 days, read-out: IC50 for inhibition of proliferation
Description: CRBN ubiquitination was measured in HEK293T cells, which were transfected with an amino-terminal His-biotin-tagged CRBN construct, then preincubated with compounds for one hour followed by treatment with the MG132 proteasome inhibitor (to arrest degradation of ubiquitinated proteins). Cells were lysed and processed to measure CRBN ubiquitination by SDS-PAGE and immunoblot analysis using an anti-ubiquitin antibody. Cell proliferation studies were conducted in lenalidomide-sensitive and refractory multiple myeloma cells. […] T-cell costimulation was measured in purified primary human T cells stimulated using immobilized anti-CD3 antibody in cell culture for 2 days, and cytokine secretion was measured by ELISA.

[4] = test system: H929 cells; test: Cell cycle and protein expression in H929 cells; format: cell-based
[5] = Pharmacokinetics in rat; format: in vivo; details: SD Rat, 67% S-enantiomer, 33% R-enantiomer
[6] = test system: normal donor peripheral blood mononuclear cells; test: Immunoglobulin M and G production; format: cell-based; details: Homo sapiens, PBMC
Description: Immunoglobulin M and G (“IgG and IgM”) production was measured from normal donor peripheral blood mononuclear cells by culturing in the presence of the B cell differentiation factors recombinant human IL-2 (20U/mL), IL-10 (50 ng/mL), IL-15 (10 ng/mL), His-tagged CD40 Ligand (50 ng/mL), polyHistidine mouse IgG1 antibody (5 μg/mL), and ODN 2006-Human TLR9 ligand (10 μg/mL) for 4 days, followed by IL-2, IL-10, IL-15, and IL-6 (50 ng/mL) for an additional 3 days. IgM and IgG were measured by ELISA.

[7] = test system: NK cell mediated ADCC against Rituximab coated lymphoma cells; test: NK cell mediated ADCC assay (LDH release); format: cell-based, human
Description: NK cells from healthy donors were isolated from buffy coat blood by negative selection using the RosetteSep NK cell enrichment cocktail (Stem Cell Technologies, Vancouver, BC) prior to Ficoll-Hypaque (Fisher Scientific Co LLC, PA) density gradient centrifugation following the manufacturers' instructions. CD56+NK cells were isolated to ˜85% purity, as determined by flow cytometry (BD Biosciences, CA).
ADCC Assay: Purified NK cells (5×104) were seeded in 96-well U-bottom plates in 100 μL of RPMI-1640 medium without phenol (Invitrogen)+2% human AB+serum (Gemini Bio Products, CA) and treated with 10 ng/mL rhIL-2 and rituximab (5 μg/mL) plus different concentrations of test compounds at 0.01 to 10 μM for 48 hours. Various lymphoma cell lines (GCB-DLBCL: WSU-DLCL2 and Farage; Follicular lymphoma: DoHH2; ABC-DLBCL: Riva; Burkitt's lymphoma [BL]: Raji) were treated with 5 µg/mL rituximab for 30 minutes at 37° C. Unbound rituximab was washed off, target cells (5×103/100 μL/well) were added to the pretreated effector cells (NK cells) at a 10:1 ratio, and the two were co-incubated for 4 hours at 37° C. Control conditions consisted of NK cells plus tumor cells treated with (1) medium alone, (2) rituximab only, or (3) IL-2 alone. Using an aliquot of supernatant (50 μL), NK cell cytotoxicity against tumor cells was analyzed using a standard lactate dehydrogenease (LDH) release assay to measure ADCC (CytoTox 96 Non-Radioactive Cytoxicity Assay, Promega, WI). Spontaneous release by target cells alone was <15% of the maximum release, as determined with target cells lysed in 1% Triton X-100. The experimental release was corrected by subtraction of the spontaneous release of effector cells at the corresponding dilution. The percentage of specific lysis was calculated according to the formula: Percentage specific lysis=100×(experimental−effector spontaneous−target spontaneous)/(target maximum−target spontaneous).
NK cell-mediated specific lysis was calculated with the following formula: Percentage specific lysis=[(experimental release−spontaneous release)/(maximum release−spontaneous release)]×100. Results were analyzed using GraphPad Prism v5.0 software. Data are presented as the percentage cytotoxicity relative to DMSO-treated cells.

[8] = test system: DoHH2 cell line; test: Apoptosis analysis (annexin-V); format: cell-based
Description: Apoptosis Analysis: Cells were treated with DMSO or an amount of a compound provided herein at various time points, then washed with annexin-V wash buffer (BD Biosciences). Cells were incubated with annexin-V binding protein and propidium iodide (BD Biosciences) for 10 minutes. Samples were analyzed using flow cytometry.

[9] = test system: NFκB p65 and p50; test: NFκB activity in DLBCL cells (Active Motif transcription factor assay); format: cell-based; details: 1 μM and 10 μM; 2 days; ABC-DLBCL lines such as TMD8 and OCI-Ly10
Description: DLBCL cells were treated with test compound or an IKK1/2 dual inhibitor (used as a positive inhibitor control) for 2 days. NFκB activity was examined with Active Motif transcription factor assay using nuclear extracts from cells following treatment.

[10] = test system: blood vessel growth in Matrigel plugs; test: Mouse Matrigel angiogenesis model; format: in vivo, C57B/6 mice; details: 3 and 30 mpk; 10 days
Description: Mouse Matrigel Angiogenesis model was conducted as follows: Matrigel plugs with rhVegf, rhbFGF and heparin were inserted into C57B/6 mice for 10 days with drug treatment. Plugs were analyzed for ms CD31 by IHC.

[11] = test system: WSU-DLCL2 DLBCL xenograft; test: WSU-DLCL2 DLBCL xenograft model
[12] = Sprague-Dawley, plasma, 10 mg/kg, 10 mpk po

O=C1CC[C@H](N2Cc3c(OCc4ccc(CN5CCOCC5)cc4)cccc3C2=O)C(=O)N1 [Compound I-S, (S)-3-(4-((4-(morpholinomethyl)benzyl)oxy)-1-oxoisoindolin-2-yl)piperidine-2,6-dione]
IC50 ([1]; Homo sapiens, DOHH-2, 72 h, 3 day, read-out: anti-proliferative IC50): 40 nM | combination effect, fractional product method ([1]; combined with Rituxan): synergistic manner | IC50 [2]: 1580 nM | IC50 [3]: 40 nM | expression of cyclin-dependent kinase inhibitor p27 ([4]; 48 hours): increased | expression of retinoblastoma protein (pRB) ([4]; 48 hours): decreased | expression of survivin ([4]; 48 hours): decreased | decrease in cell cycle (S-phase) ([4]; after 24 hours of treatment): 50% | F ([5]; 10 mpk po): 52% | AUC ([5]; Sprague-Dawley, plasma, 2 mg/kg, 2 mpk iv): 890 ng·h/mL and 2 µM·h | clearance ([5]; Sprague-Dawley, plasma, 2 mg/kg, 2 mpk iv, read-out: CLp): 37 mL/min/kg | Vd ([5]; Sprague-Dawley, plasma, 2 mg/kg, 2 mpk iv, read-out: Vss): 2.9 L/kg | AUC [5, 12]: 2400 ng·h/mL and 5.2 µM·h | Cmax [5, 12]: 1500 ng/mL and 3.3 µM | IC50 ([6]; read-out: IgG production IC50): 2.1 nM | IC50 ([6]; read-out: IgM production IC50): 0.35 nM

O=C1CCC(N2Cc3c(OCc4ccc(CN5CCOCC5)cc4)cccc3C2=O)C(=O)N1 (racemic) [Compound I, 3-(4-((4-(morpholinomethyl)benzyl)oxy)-1-oxoisoindolin-2-yl)piperidine-2,6-dione]
concentration of peak ADCC activity ([7]; Farage cells): 1 µM | concentration of peak ADCC activity ([7]; Raji cells): 0.1 µM | rituximab-mediated ADCC, all cell lines ([7]; WSU-DLCL2, Farage, DoHH2, Riva, Raji): more active than compounds I-S and I-R in all the cell lines tested except in Riva cells | concentration of peak ADCC activity ([7]; WSU-DLCL2 cells): 0.1 µM | concentration of peak ADCC activity ([7]; other cell lines (than WSU-DLCL2 and Raji)): 1 µM | apoptosis induction and live cell number reduction in combination ([8]; combined with Rituxan): additive manner | apoptosis and cell numbers ([8]; single agent): induced apoptosis | NFκB p65 and p50 activity [9]: significantly inhibits | blood vessel growth (ms CD31 IHC) [10]: significantly inhibits | Tumor Free Survival on Day 44 ([11]; 3 mg/kg in combination with Rituxan 2 mg/kg iv qw): 6/10 | Tumor Free Survival on Day 44 ([11]; 30 mg/kg in combination with Rituxan 2 mg/kg iv qw): 6/10 | tumor response in combination with Rituxan ([11]; all combination treatment groups, complete regression = tumor volume <25 mm^3): complete regression
